From patent US11773078B2, “Furin inhibitors” (Glaxosmithkline Intellectual Property Development Limited, priority 2018, dated 2023)
Counter-ions that a name gives are not always drawn.

Experiments:
[1] = target: T1, Furin (108-574-Tev-Flag-His) enzyme (Homo sapiens, UniProt P09958); assay: Furin enzyme assay; assay type: biochemical; conditions: for IC50: read-out: furin enzyme pIC50 (converted)
T1 construct: Furin (108-574-Tev-Flag-His) enzyme was expressed and purified from CHO cells; TEV cleavage site (C); FLAG (C); His (C); made in house; host or cells: CHO cells
Summary of the method: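 Compounds ran as 11-point threefold dilutions (0.00017–10 μM final) against 40 pM furin, purified from CHO cells, for 2 h at room temperature. Buffer: 100 mM HEPES pH7.5 with 1 mM CaCl2 and 0.005% Triton X-100. Envision readout. Four-parameter curve gives pXC50.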

[2] = target: T2, furin (endogenous protease) in U20S cells (Homo sapiens, UniProt P09958); assay: Furin cell-based assay (image-based, Golgi-targeted GFP with BMP10 furin/PCSK cleavage site); conditions: 24-hour incubation, read-out: furin golgi cell pXC50 (converted);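 further: Read-out is mean GFP fluorescence of Golgi puncta per cell by high-content imaging, retained when furin inhibited, over an eleven-point 0.00017–10 µM series, four-parameter fit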
T2 construct: the endogenous protease cleaves GFP; endogenous in cells; host or cells: U2OS cells transduced with a BacMam reporter
T2 sequence (P09958 108-794): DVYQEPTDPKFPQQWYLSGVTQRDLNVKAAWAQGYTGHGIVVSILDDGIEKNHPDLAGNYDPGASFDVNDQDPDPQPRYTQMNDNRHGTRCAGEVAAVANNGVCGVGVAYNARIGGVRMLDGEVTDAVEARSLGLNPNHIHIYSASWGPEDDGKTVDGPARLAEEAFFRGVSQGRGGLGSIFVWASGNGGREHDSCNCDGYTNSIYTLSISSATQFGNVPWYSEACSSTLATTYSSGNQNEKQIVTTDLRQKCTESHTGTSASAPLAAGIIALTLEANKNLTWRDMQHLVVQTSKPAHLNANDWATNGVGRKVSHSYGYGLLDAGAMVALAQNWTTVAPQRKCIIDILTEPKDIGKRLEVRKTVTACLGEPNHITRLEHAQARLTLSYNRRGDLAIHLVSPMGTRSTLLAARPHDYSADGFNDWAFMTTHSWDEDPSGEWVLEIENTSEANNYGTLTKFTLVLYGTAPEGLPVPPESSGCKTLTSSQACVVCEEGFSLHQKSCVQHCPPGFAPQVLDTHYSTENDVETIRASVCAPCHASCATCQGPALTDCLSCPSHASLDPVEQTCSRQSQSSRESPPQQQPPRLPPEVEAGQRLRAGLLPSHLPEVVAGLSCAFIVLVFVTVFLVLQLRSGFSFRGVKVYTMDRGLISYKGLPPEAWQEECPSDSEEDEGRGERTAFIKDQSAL

T1 sequence (P09958 108-574): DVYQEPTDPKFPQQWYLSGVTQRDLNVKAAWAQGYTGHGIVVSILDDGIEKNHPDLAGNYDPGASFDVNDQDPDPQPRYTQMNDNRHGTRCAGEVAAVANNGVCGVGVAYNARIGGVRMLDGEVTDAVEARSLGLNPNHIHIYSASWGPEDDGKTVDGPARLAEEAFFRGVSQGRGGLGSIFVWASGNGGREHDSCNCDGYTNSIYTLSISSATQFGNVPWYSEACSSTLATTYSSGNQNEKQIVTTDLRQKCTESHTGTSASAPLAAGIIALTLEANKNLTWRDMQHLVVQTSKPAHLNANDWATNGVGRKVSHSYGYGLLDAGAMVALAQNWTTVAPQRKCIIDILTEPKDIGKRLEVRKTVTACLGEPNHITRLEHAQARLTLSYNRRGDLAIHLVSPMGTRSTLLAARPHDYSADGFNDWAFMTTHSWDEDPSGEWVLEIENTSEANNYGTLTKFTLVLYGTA

Compound	furin enzyme pIC50 [1]	EC50 [2]	IC50 [1]
CNCc1cc(Oc2ccc(N3CCCNCC3)nc2)cc(-c2cc(Cl)cc(Cl)c2)c1 [Example 103]	8.9	63.1 nM	
CNCc1cc(Oc2ccc(N3CCN(C)CC3)nc2)cc(-c2cc(Cl)cc(Cl)c2)c1 [Example 104, 1-(3′,5′-dichloro-5-((6-(4-methylpiperazin-1-yl)pyridin-3-yl)oxy)-[1,1′-biphenyl]-3-yl)-N-methylmethanamine]	8.5	25.1 nM	
CC(=O)NCC1CCN(Cc2cc(Oc3ccc(NCC(C)(C)N)nc3)cc(-c3cc(Cl)cc(Cl)c3)c2)CC1 [Example 105, N-((1-((5-((6-((2-Amino-2-methylpropyl)amino)pyridin-3-yl)oxy)-3′,5′-dichloro-[1,1′-biphenyl]-3-yl)methyl)piperidin-4-yl)methyl)acetamide, 3 hydrochloride]	9	126 nM	
CC(=O)NCC1CCN(Cc2cc(Oc3ccc(N4CC[C@@H](N)[C@@H](F)C4)nc3)cc(-c3cc(Cl)cc(Cl)c3)c2)CC1 [Example 106, N-((1-((5-((6-((r/3)-4-Amino-3-fluoropiperidin-1-yl)pyridin-3-yl)oxy)-3′,5′-dichloro-[1,1′-biphenyl]-3-yl)methyl)piperidin-4-yl)methyl)acetamide, 3 hydrochloride]	9.4	3.16 nM	
CC(=O)NCC1CCN(Cc2cc(Oc3ccc(N4CCN5C(=O)NCC5C4)nc3)cc(-c3cc(Cl)cc(Cl)c3)c2)CC1 (stereo not shown) [Example 107, N-((1-((3′,5′-Dichloro-5-((6-(3-oxohexahydroimidazo[1,5-a]pyrazin-7(1H)-yl)pyridin-3-yl)oxy)-[1,1′-biphenyl]-3-yl)methyl)piperidin-4-yl)methyl)acetamide, 2 hydrochloride]	9	5.01 nM	
CNCc1cc(Oc2ccc(N3CCC(N)CC3)nc2)nc(-c2cc(C)cc(Cl)c2)c1 [Example 108, 1-(5-((6-(3-Chloro-5-methylphenyl)-4-((methylamino)methyl)pyridin-2-yl)oxy)pyridin-2-yl)piperidin-4-amine, 4 hydrochloride]	7.5	> 50100 nM	
CC(=O)NCC1CCN(Cc2cc(Oc3cnc(N4CCNCC4)cn3)nc(-c3cc(Cl)cc(Cl)c3)c2)CC1 [Example 109, N-((1-((2-(3,5-Dichlorophenyl)-6-((5-(piperazin-1-yl)pyrazin-2-yl)oxy)pyridin-4-yl)methyl)piperidin-4-yl)methyl)acetamide]	9.6	15.8 nM	
CC(=O)NCC1CCN(Cc2cc(Oc3cnc(N4CCN(C)CC4)cn3)nc(-c3cc(Cl)cc(Cl)c3)c2)CC1 [Example 110, N-((1-((2-(3,5-Dichlorophenyl)-6-((5-(4-methylpiperazin-1-yl)pyrazin-2-yl)oxy)pyridin-4-yl)methyl)piperidin-4-yl)methyl)acetamide]	10.3	2.51 nM	
CC(=O)NCC1CCN(Cc2cc(Oc3cnc(N4CCN(CCC(=O)O)CC4)cn3)nc(-c3cc(Cl)cc(Cl)c3)c2)CC1 [Example 111, 3-(4-(5-((4-((4-(Acetamidomethyl)piperidin-1-yl)methyl)-6-(3,5-dichlorophenyl)pyridin-2-yl)oxy)pyrazin-2-yl)piperazin-1-yl)propanoic acid]	9.7	158 nM	
O=C(O)CC1CCN(Cc2cc(Oc3cnc(N4CCNCC4)cn3)nc(-c3cc(Cl)cc(Cl)c3)c2)CC1 [Example 112, 2-(1-((2-(3,5-Dichlorophenyl)-6-((5-(piperazin-1-yl)pyrazin-2-yl)oxy)pyridin-4-yl)methyl)piperidin-4-yl)acetic acid]	8.9	126 nM	
CC(=O)NCC1CCN(Cc2cc(Oc3cnc(N4CCN(CCCO)CC4)nc3)cc(-c3cc(Cl)cc(Cl)c3)c2)CC1 [Example 113, N-((1-((3′,5′-Dichloro-5-((2-(4-(3-hydroxypropyl)piperazin-1-yl)pyrimidin-5-yl)oxy)-[1,1′-biphenyl]-3-yl)methyl)piperidin-4-yl)methyl)acetamide]		12.6 nM	< 0.158 nM

Now from value to compound:

furin enzyme pIC50 [1]	EC50 [2]	IC50 [1]	Compound
	20 nM	< 0.158 nM	O=C(O)CCC1CCN(Cc2cc(Oc3cnc(N4CCN(CCO)CC4)nc3)cc(-c3cc(Cl)cc(Cl)c3)c2)CC1 [Example 114, 3-(1-((3′,5′-Dichloro-5-((2-(4-(2-hydroxyethyl)piperazin-1-yl)pyrimidin-5-yl)oxy)-[1,1′-biphenyl]-3-yl)methyl)piperidin-4-yl)propanoic acid]
8.3	251 nM		CC(=O)NCC1CCN(Cc2cc(Oc3ccc(N4CCN(CCC(=O)O)CC4)nc3)nc(-c3cc(F)cc(Cl)c3)c2)CC1 [Example 115, 3-(4-(5-((4-((4-(Acetamidomethyl)piperidin-1-yl)methyl)-6-(3-chloro-5-fluorophenyl)pyridin-2-yl)oxy)pyridin-2-yl)piperazin-1-yl)propanoic acid]
10.4	200 nM		CC(=O)NCC1CCN(Cc2cc(Oc3ccc(N4CCN(CCC(=O)O)CC4)nc3)nc(-c3cc(F)cc(Br)c3)c2)CC1 [Example 116, 3-(4-(5-((4-((4-(Acetamidomethyl)piperidin-1-yl)methyl)-6-(3-bromo-5-fluorophenyl)pyridin-2-yl)oxy)pyridin-2-yl)piperazin-1-yl)propanoic acid]
9.2	31.6 nM		CN1CCN(c2ncc(Oc3cc(CN4CCC(CC(=O)O)CC4)cc(-c4cc(Cl)cc(Cl)c4)c3)cn2)CC1 [Example 117, 2-(1-((3′,5′-Dichloro-5-((2-(4-methylpiperazin-1-yl)pyrimidin-5-yl)oxy)-[1,1′-biphenyl]-3-yl)methyl)piperidin-4-yl)acetic acid]
8.7	15.8 nM		CC(=O)NCC1CCN(Cc2cc(Oc3cnc(N4CCCNCC4)nc3)nc(-c3cc(Cl)cc(Cl)c3)c2)CC1 [Example 118, N-((1-((2-((2-(1,4-Diazepan-1-yl)pyrimidin-5-yl)oxy)-6-(3,5-dichlorophenyl)pyridin-4-yl)methyl)piperidin-4-yl)methyl)acetamide]
9.3	25.1 nM		CC(=O)NCC1CCN(Cc2cc(Oc3cnc(N4CCC(N)CC4)nc3)nc(-c3cc(Cl)cc(Cl)c3)c2)CC1 [Example 119, N-((1-((2-((2-(4-aminopiperidin-1-yl)pyrimidin-5-yl)oxy)-6-(3,5-dichlorophenyl)pyridin-4-yl)methyl)piperidin-4-yl)methyl)acetamide]
	15.8 nM	2 nM	C[N+](C)([O-])CCC1CCN(Cc2cc(Oc3ccc(N4CCNCC4)nc3)nc(-c3cc(Cl)cc(Cl)c3)c2)CC1 [Example 120, 2-(1-((2-(3,5-dichlorophenyl)-6-((6-(piperazin-1-yl)pyridin-3-yl)oxy)pyridin-4-yl)methyl)piperidin-4-yl)-N,N-dimethylethanamine oxide]
8.6	31.6 nM		CC(=O)NCC1CCN(Cc2cc(Oc3cnc(N4CCNCC4)c(F)c3)nc(-c3cc(Cl)cc(Cl)c3)c2)CC1 [Example 121, N-((1-((2-(3,5-dichlorophenyl)-6-((5-fluoro-6-(piperazin-1-yl)pyridin-3-yl)oxy)pyridin-4-yl)methyl)piperidin-4-yl)methyl)acetamide]
8.5	79.4 nM		O=C(O)COC1CCN(Cc2cc(Oc3cnc(N4CCNCC4)nc3)nc(-c3cc(Cl)cc(Cl)c3)c2)CC1 [Example 122]
